Consider 21 molecules from patent US20250388589A1, “TRICYCLIC HETEROCYCLIC DERIVATIVES, COMPOSITIONS AND USES THEREOF” (Danatlas Pharmaceuticals Co., Ltd., priority 2022, published 2025).

Assay [1] deals with hPARG (C-terminal His6-tag) (Homo sapiens (Human), UniProt Q86W56). In words: PARG Enzymatic Activity Assay (HTRF). It counts as biochemical. The note with it: hPARG 65 pM final, biotinylated-NAD ribosylated PARP1 8 nM final. The method, boiled down:
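E. coli-expressed enzyme (65 pM final) preincubated 60 min RT with compounds (10-point 4-fold dilution, duplicate) in 50 mM Tris pH 7.4, 3 mM EDTA, 1 mM DTT, 50 mM KCl, 0.01% Tween 20. Biotinylated-NAD ribosylated PARP1 substrate (8 nM final) reacted 10 min RT; Eu-streptavidin/anti-6HIS-XL665 HTRF read 665/620 nm after 60 min. IC50 from 4-parameter Hill fit.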
In general terms: Time-resolved FRET reads energy transfer from a long-lived donor to a nearby acceptor.

For assay [2], the system named is Kuramochi cell line. In words: Cell Viability Assay (Cell Titer-Glo, 7 days). It counts as cell-based. The following applies: 168 h, Kuramochi cells, 7 days incubation, read-out: PARG Cell viability (IC50). The method, boiled down:
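Kuramochi cells in RPMI with 10% FBS, seeded at 400 cells/well, were treated with a 9-point 3-fold dilution series in duplicate for 7 days at 37 °C, 5% CO2. Viability by CellTiter-Glo luminescence, normalised to DMSO and medium-only controls; IC50 from 4-parameter Hill fit.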
Background: Cellular ATP, detected with luciferase, serves as a proxy for viable cell number.

Where only a bound is given, the exact number is not on record here.

hPARG (C-terminal His6-tag), sequence (Q86W56 whole entry): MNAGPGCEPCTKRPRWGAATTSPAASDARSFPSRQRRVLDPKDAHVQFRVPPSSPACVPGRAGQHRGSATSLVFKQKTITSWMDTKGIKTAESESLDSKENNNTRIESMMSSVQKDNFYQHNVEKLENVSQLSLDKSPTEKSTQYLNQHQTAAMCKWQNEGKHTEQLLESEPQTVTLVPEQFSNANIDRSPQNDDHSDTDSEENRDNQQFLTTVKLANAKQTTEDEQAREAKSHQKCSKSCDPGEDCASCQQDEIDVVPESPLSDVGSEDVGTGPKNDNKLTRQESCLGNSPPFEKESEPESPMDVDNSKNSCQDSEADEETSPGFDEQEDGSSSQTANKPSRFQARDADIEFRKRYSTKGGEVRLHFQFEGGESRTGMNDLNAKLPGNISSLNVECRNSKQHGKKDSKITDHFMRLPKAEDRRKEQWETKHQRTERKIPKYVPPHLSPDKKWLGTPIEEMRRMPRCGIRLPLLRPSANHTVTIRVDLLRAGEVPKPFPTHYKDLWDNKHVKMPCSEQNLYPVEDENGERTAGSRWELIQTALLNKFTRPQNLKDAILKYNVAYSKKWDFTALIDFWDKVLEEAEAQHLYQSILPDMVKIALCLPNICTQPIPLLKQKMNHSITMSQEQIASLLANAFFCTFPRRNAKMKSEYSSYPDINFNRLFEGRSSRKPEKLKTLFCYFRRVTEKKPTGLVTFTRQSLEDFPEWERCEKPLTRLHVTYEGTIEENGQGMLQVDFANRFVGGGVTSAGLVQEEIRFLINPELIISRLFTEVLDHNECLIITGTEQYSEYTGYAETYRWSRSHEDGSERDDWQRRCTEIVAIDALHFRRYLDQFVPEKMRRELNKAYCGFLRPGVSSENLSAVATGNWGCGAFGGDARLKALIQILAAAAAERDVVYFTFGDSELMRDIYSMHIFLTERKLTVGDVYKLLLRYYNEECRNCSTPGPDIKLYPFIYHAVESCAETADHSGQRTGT

As a reminder, the IC50 is the point on the concentration scale where inhibition reaches its midpoint. In the case of `CCN1CCN(c2ncnc3c2c2ccc(S(=O)(=O)NC4(C#N)CC4)cc2n3-c2nnc(C(F)F)s2)C[C@@H]1C` [Example 163, (S)-N-(1-cyanocyclopropyl)-9-(5-(difluoromethyl)-1,3,4-thiadiazol-2-yl)-4-(4-ethyl-3-methylpiperazin-1-yl)-9H-pyrimido[4,5-b]indole-7-sulfonamide], the half-inhibitory concentration (IC50) in assay [1] is 100 to 1000 nM; in assay [2] it was under 100 nM.
Taken in the same sequence, the figures for `C[C@H]1CN(c2ncnc3c2c2ccc(S(=O)(=O)NC4(C#N)CC4)cc2n3-c2nnc(C(F)F)s2)CCN1CC1CC1` [Example 164, (S)-N-(1-cyanocyclopropyl)-4-(4-(cyclopropylmethyl)-3-methylpiperazin-1-yl)-9-(5-(difluoromethyl)-1,3,4-thiadiazol-2-yl)-9H-pyrimido[4,5-b]indole-7-sulfonamide] were under 100 nM and under 100 nM.
Taken in the same sequence, the figures for `N#CC1(NS(=O)(=O)c2ccc3c4c(N5CC6OCCOC6C5)ncnc4n(-c4nnc(C(F)F)s4)c3c2)CC1` (stereo not drawn) [Example 165, N-(1-Cyanocyclopropyl)-9-(5-(difluoromethyl)-1,3,4-thiadiazol-2-yl)-4-(hexahydro-6H-[1,4]dioxino[2,3-c]pyrrol-6-yl)-9H-pyrimido[4,5-b]indole-7-sulfonamide] were 100 to 1000 nM and 100 to 1000 nM.
Taken in the same sequence, the figures for `N#CC1(NS(=O)(=O)c2ccc3c4c(N5CCS(=O)(=O)CC5)ncnc4n(-c4nnc(C(F)F)s4)c3c2)CC1` [Example 166, N-(1-cyanocyclopropyl)-9-(5-(difluoromethyl)-1,3,4-thiadiazol-2-yl)-4-(1,1-dioxidothiomorpholino)-9H-pyrimido[4,5-b]indole-7-sulfonamide] were under 100 nM and 100 to 1000 nM.
As for `N#CC1(NS(=O)(=O)c2ccc3c4c(N5CCN6C(=O)OC[C@H]6C5)ncnc4n(-c4nnc(C(F)F)s4)c3c2)CC1` [Example 167, (R)-N-(1-cyanocyclopropyl)-9-(5-(difluoromethyl)-1,3,4-thiadiazol-2-yl)-4-(3-oxotetrahydro-3H-oxazolo[3,4-a]pyrazin-7(1H)-yl)-9H-pyrimido[4,5-b]indole-7-sulfonamide], the IC50 in assay [1] and in assay [2] was under 100 nM each time.
With `N#CC1(NS(=O)(=O)c2ccc3c4c(N5CCN6C(=O)COC[C@H]6C5)ncnc4n(-c4nnc(C(F)F)s4)c3c2)CC1` [Example 168, (R)—N-(1-Cyanocyclopropyl)-9-(5-(difluoromethyl)-1,3,4-thiadiazol-2-yl)-4-(4-oxohexahydropyrazino[2,1-c][1,4]oxazin-8(1H)-yl)-9H-pyrimido[4,5-b]indole-7-sulfonamide], the IC50 in assay [1] and in assay [2] was under 100 nM each time.
Consider `N#CC1(NS(=O)(=O)c2ccc3c4c(N5C[C@H]6COC[C@H]6C5)ncnc4n(-c4nnc(C(F)F)s4)c3c2)CC1` [Example 169, N-(1-Cyanocyclopropyl)-9-(5-(difluoromethyl)-1,3,4-thiadiazol-2-yl)-4-((3aR,6aS)-tetrahydro-1H-furo[3,4-c]pyrrol-5(3H)-yl)-9H-pyrimido[4,5-b]indole-7-sulfonamide], for which the half-inhibitory concentration (IC50) in assay [1] and in assay [2] was under 100 nM each time.
Turning to `N#CC1(NS(=O)(=O)c2ccc3c4c(N5CCCOCC5)ncnc4n(-c4nnc(C(F)F)s4)c3c2)CC1` [Example 170, N-(1-Cyanocyclopropyl)-9-(5-(difluoromethyl)-1,3,4-thiadiazol-2-yl)-4-(1,4-oxazepan-4-yl)-9H-pyrimido[4,5-b]indole-7-sulfonamide], the concentration for half-maximal inhibition (IC50) in assay [1] and in assay [2] was under 100 nM throughout.
As to `CO[C@@H]1CCN(c2ncnc3c2c2ccc(S(=O)(=O)NC4(C#N)CC4)cc2n3-c2nnc(C(F)F)s2)C[C@@H]1F` [Example 171, N-(1-Cyanocyclopropyl)-9-(5-(difluoromethyl)-1,3,4-thiadiazol-2-yl)-4-((3S,4R)-3-fluoro-4-methoxypiperidin-1-yl)-9H-pyrimido[4,5-b]indole-7-sulfonamide], the IC50 in assay [1] and in assay [2] was under 100 nM in each case.
Regarding `CO[C@H]1CCN(c2ncnc3c2c2ccc(S(=O)(=O)NC4(C#N)CC4)cc2n3-c2nnc(C(F)F)s2)C[C@@H]1F` [Example 172, N-(1-cyanocyclopropyl)-9-(5-(difluoromethyl)-1,3,4-thiadiazol-2-yl)-4-((3S,4S)-3-fluoro-4-methoxypiperidin-1-yl)-9H-pyrimido[4,5-b]indole-7-sulfonamide], the concentration for half-maximal inhibition (IC50) in assay [1] and in assay [2] was under 100 nM in each case.
In the case of `CO[C@H]1CCN(c2ncnc3c2c2ccc(S(=O)(=O)NC4(C#N)CC4)cc2n3-c2nnc(C(F)F)s2)C[C@H]1F` [Example 173, N-(1-cyanocyclopropyl)-9-(5-(difluoromethyl)-1,3,4-thiadiazol-2-yl)-4-((3R,4S)-3-fluoro-4-methoxypiperidin-1-yl)-9H-pyrimido[4,5-b]indole-7-sulfonamide], the IC50 in assay [1] and in assay [2] was under 100 nM throughout.
Regarding `N#CC1(NS(=O)(=O)c2ccc3c4c(N5CC[C@@H](O)[C@@H](F)C5)ncnc4n(-c4nnc(C(F)F)s4)c3c2)CC1` [Example 174, N-(1-cyanocyclopropyl)-9-(5-(difluoromethyl)-1,3,4-thiadiazol-2-yl)-4-((3S,4R)-3-fluoro-4-hydroxypiperidin-1-yl)-9H-pyrimido[4,5-b]indole-7-sulfonamide], the 50% inhibitory concentration (IC50) in assay [1] and in assay [2] was under 100 nM throughout.
Turning to `CN(C)C1CCN(c2ncnc3c2c2ccc(S(=O)(=O)NC4(C#N)CC4)cc2n3-c2nnc(C(F)F)s2)C[C@@H]1F` (stereo partly drawn) [Example 175, N-(1-cyanocyclopropyl)-9-(5-(difluoromethyl)-1,3,4-thiadiazol-2-yl)-4-((3S)-4-(dimethylamino)-3-fluoropiperidin-1-yl)-9H-pyrimido[4,5-b]indole-7-sulfonamide], the IC50 in assay [1] and in assay [2] was under 100 nM each time.
On to `N#CC1(NS(=O)(=O)c2ccc3c4c(N5CC6CC(C5)O6)ncnc4n(-c4nnc(C(F)F)s4)c3c2)CC1` [Example 176, 4-(6-oxa-3-azabicyclo[3.1.1]heptan-3-yl)-N-(1-cyanocyclopropyl)-9-(5-(difluoromethyl)-1,3,4-thiadiazol-2-yl)-9H-pyrimido[4,5-b]indole-7-sulfonamide], for which the half-inhibitory concentration (IC50) in assay [1] and in assay [2] was under 100 nM throughout.
For the molecule `N#CC1(NS(=O)(=O)c2ccc3c4c(N5C[C@@H]6C[C@H]5CO6)ncnc4n(-c4nnc(C(F)F)s4)c3c2)CC1` [Example 177, 4-((1S,4S)-2-oxa-5-azabicyclo[2.2.1]heptan-5-yl)-N-(1-cyanocyclopropyl)-9-(5-(difluoromethyl)-1,3,4-thiadiazol-2-yl)-9H-pyrimido[4,5-b]indole-7-sulfonamide], the 50% inhibitory concentration (IC50) in assay [1] and in assay [2] was under 100 nM throughout.
Turning to `COCCN1CCN(c2ncnc3c2c2ccc(S(=O)(=O)NC4(C#N)CC4)cc2n3-c2nnc(C(F)F)s2)C[C@@H]1C` [Example 178, (S)-N-(1-cyanocyclopropyl)-9-(5-(difluoromethyl)-1,3,4-thiadiazol-2-yl)-4-(4-(2-methoxyethyl)-3-methylpiperazin-1-yl)-9H-pyrimido[4,5-b]indole-7-sulfonamide], the IC50 in assay [1] and in assay [2] was under 100 nM throughout.
Consider `CN(C)C(=O)C1CCN(c2ncnc3c2c2ccc(S(=O)(=O)NC4(C#N)CC4)cc2n3-c2nnc(C(F)F)s2)CC1` [Example 179, 1-(7-(N-(1-Cyanocyclopropyl)sulfamoyl)-9-(5-(difluoromethyl)-1,3,4-thiadiazol-2-yl)-9H-pyrimido[4,5-b]indol-4-yl)-N,N-dimethylpiperidine-4-carboxamide], for which the concentration for half-maximal inhibition (IC50) in assay [1] and in assay [2] was under 100 nM in each case.
Consider `CC(C)N1CCN(c2ncnc3c2c2ccc(S(=O)(=O)NC4(C#N)CC4)cc2n3-c2nnc(C(F)F)s2)CC1=O` [Example 180, N-(1-Cyanocyclopropyl)-9-(5-(difluoromethyl)-1,3,4-thiadiazol-2-yl)-4-(4-isopropyl-3-oxopiperazin-1-yl)-9H-pyrimido[4,5-b]indole-7-sulfonamide], for which the IC50 in assay [1] and in assay [2] was under 100 nM in each case.
Turning to `N#CC1(NS(=O)(=O)c2ccc3c4c(N5CCc6cc(CO)cnc6C5)ncnc4n(-c4nnc(C(F)F)s4)c3c2)CC1` [Example 181, N-(1-Cyanocyclopropyl)-9-(5-(difluoromethyl)-1,3,4-thiadiazol-2-yl)-4-(3-(hydroxymethyl)-5,8-dihydro-1,7-napthyridin-7(6H)-yl)-9H-pyrimido[4,5-b]indole-7-sulfonamide], the results for the concentration for half-maximal inhibition (IC50) in assay [1] and in assay [2] were under 100 nM and 100 to 1000 nM, respectively.
In the same order, the values of `N#CC1(NS(=O)(=O)c2ccc3c4c(N5CCC6(CCCO6)CC5)ncnc4n(-c4nnc(C(F)F)s4)c3c2)CC1` [Example 182, N-(1-Cyanocyclopropyl)-9-(5-(difluoromethyl)-1,3,4-thiadiazol-2-yl)-4-(1-oxa-8-azaspiro[4.5]decan-8-yl)-9H-pyrimido[4,5-b]indole-7-sulfonamide] are under 100 nM and under 100 nM.
In the same order, the values of `N#CC1(NS(=O)(=O)c2ccc3c4c(N5CCC6(CCOC6)CC5)ncnc4n(-c4nnc(C(F)F)s4)c3c2)CC1` [Example 183, N-(1-Cyanocyclopropyl)-9-(5-(difluoromethyl)-1,3,4-thiadiazol-2-yl)-4-(2-oxa-8-azaspiro[4.5]decan-8-yl)-9H-pyrimido[4,5-b]indole-7-sulfonamide] are under 100 nM and under 100 nM.
